In article PMC4917279 (Journal of Medicinal Chemistry, 2016):

Experiments:
[1] = target: T1, PRKG2 (Homo sapiens, UniProt Q13237); experiment: KINOMEscan; format: binding; conditions: read-out: %Ctrl @ 1000 nM
T1 construct: purchased DiscoveRx KINOMEscan

[2] = target: T2, EPHA7 (Homo sapiens, UniProt Q15375); experiment: KINOMEscan; format: binding; conditions: read-out: %Ctrl @ 1000 nM
T2 construct: purchased DiscoveRx KINOMEscan

[3] = target: T3, ERK5 (Homo sapiens, UniProt Q13164); experiment: KINOMEscan; format: binding; conditions: read-out: %Ctrl @ 1000 nM
T3 construct: purchased DiscoveRx KINOMEscan

[4] = target: T4, p38-beta (Homo sapiens, UniProt Q15759); experiment: KINOMEscan; format: binding; conditions: read-out: %Ctrl @ 1000 nM
T4 construct: purchased DiscoveRx KINOMEscan

[5] = target: T5, EPHB4 (Homo sapiens, UniProt P54760); experiment: KINOMEscan; format: binding; conditions: read-out: %Ctrl @ 1000 nM
T5 construct: purchased DiscoveRx KINOMEscan

[6] = target: T6, PRKCQ (Homo sapiens, UniProt Q04759); experiment: KINOMEscan; format: binding; conditions: read-out: %Ctrl @ 1000 nM
T6 construct: purchased DiscoveRx KINOMEscan

[7] = target: T7, PKAC-beta (Homo sapiens, UniProt P22694); experiment: KINOMEscan; format: binding; conditions: read-out: %Ctrl @ 1000 nM
T7 construct: purchased DiscoveRx KINOMEscan

[8] = target: T8, CAMK1G (Homo sapiens, UniProt Q96NX5); experiment: KINOMEscan; format: binding; conditions: read-out: %Ctrl @ 1000 nM
T8 construct: purchased DiscoveRx KINOMEscan

[9] = target: T9, ALK(C1156Y) (Homo sapiens, UniProt Q9UM73, C1156Y); experiment: KINOMEscan; format: binding; conditions: read-out: %Ctrl @ 1000 nM
T9 construct: purchased DiscoveRx KINOMEscan

[10] = target: T10, RSK1(Kin.Dom.2-C-terminal) (Homo sapiens, UniProt Q15418); experiment: KINOMEscan; format: binding; conditions: read-out: %Ctrl @ 1000 nM
T10 construct: RSK1(Kin.Dom.2-C-terminal); purchased DiscoveRx KINOMEscan

[11] = target: T11, ACVR2B (Homo sapiens, UniProt Q13705); experiment: KINOMEscan; format: binding; conditions: read-out: %Ctrl @ 1000 nM
T11 construct: purchased DiscoveRx

[12] = target: T12, RET(M918T) (Homo sapiens, UniProt P07949, M918T); experiment: KINOMEscan; format: binding; conditions: read-out: %Ctrl @ 1000 nM
T12 construct: purchased DiscoveRx KINOMEscan

[13] = target: T13, PIK3CA(M1043I) (Homo sapiens, UniProt P42336, M1043I); experiment: KINOMEscan; format: binding; conditions: read-out: %Ctrl @ 1000 nM
T13 construct: purchased DiscoveRx KINOMEscan

[14] = target: T14, RSK4(Kin.Dom.1-N-terminal) (Homo sapiens, UniProt Q9UK32); experiment: KINOMEscan; format: binding; conditions: read-out: %Ctrl @ 1000 nM
T14 construct: RSK4(Kin.Dom.1-N-terminal); purchased DiscoveRx KINOMEscan

[15] = target: T15, EGFR(L858R,T790M) (Homo sapiens, UniProt P00533, L858R/T790M); experiment: KINOMEscan; format: binding; conditions: read-out: %Ctrl @ 1000 nM
T15 construct: purchased DiscoveRx KINOMEscan

[16] = target: T16, CSNK1E (Homo sapiens, UniProt P49674); experiment: KINOMEscan; format: binding; conditions: read-out: %Ctrl @ 1000 nM
T16 construct: purchased DiscoveRx KINOMEscan

[17] = target: T17, ERBB2 (Homo sapiens, UniProt P04626); experiment: KINOMEscan; format: binding; conditions: read-out: %Ctrl @ 1000 nM
T17 construct: purchased DiscoveRx KINOMEscan

[18] = target: T18, NEK6 (Homo sapiens, UniProt Q9HC98); experiment: KINOMEscan; format: binding; conditions: read-out: %Ctrl @ 1000 nM
T18 construct: purchased DiscoveRx KINOMEscan

[19] = target: T19, YANK3 (Homo sapiens, UniProt Q86UX6); experiment: KINOMEscan; format: binding; conditions: read-out: %Ctrl @ 1000 nM
T19 construct: purchased DiscoveRx KINOMEscan

[20] = target: T20, EPHA5 (Homo sapiens, UniProt P54756); experiment: KINOMEscan; format: binding; conditions: read-out: %Ctrl @ 1000 nM
T20 construct: purchased DiscoveRx KINOMEscan

[21] = target: T21, FLT3(K663Q) (Homo sapiens, UniProt P36888, K663Q); experiment: KINOMEscan; format: binding; conditions: read-out: %Ctrl @ 1000 nM
T21 construct: purchased DiscoveRx KINOMEscan

[22] = target: T22, FGFR3(G697C) (Homo sapiens, UniProt P22607, G697C); experiment: KINOMEscan; format: binding; conditions: read-out: %Ctrl @ 1000 nM
T22 construct: purchased DiscoveRx KINOMEscan

[23] = target: T23, GAK (Homo sapiens, UniProt O14976); experiment: KINOMEscan; format: binding; conditions: read-out: %Ctrl @ 1000 nM
T23 construct: purchased DiscoveRx KINOMEscan
T23 sequence (O14976 whole entry): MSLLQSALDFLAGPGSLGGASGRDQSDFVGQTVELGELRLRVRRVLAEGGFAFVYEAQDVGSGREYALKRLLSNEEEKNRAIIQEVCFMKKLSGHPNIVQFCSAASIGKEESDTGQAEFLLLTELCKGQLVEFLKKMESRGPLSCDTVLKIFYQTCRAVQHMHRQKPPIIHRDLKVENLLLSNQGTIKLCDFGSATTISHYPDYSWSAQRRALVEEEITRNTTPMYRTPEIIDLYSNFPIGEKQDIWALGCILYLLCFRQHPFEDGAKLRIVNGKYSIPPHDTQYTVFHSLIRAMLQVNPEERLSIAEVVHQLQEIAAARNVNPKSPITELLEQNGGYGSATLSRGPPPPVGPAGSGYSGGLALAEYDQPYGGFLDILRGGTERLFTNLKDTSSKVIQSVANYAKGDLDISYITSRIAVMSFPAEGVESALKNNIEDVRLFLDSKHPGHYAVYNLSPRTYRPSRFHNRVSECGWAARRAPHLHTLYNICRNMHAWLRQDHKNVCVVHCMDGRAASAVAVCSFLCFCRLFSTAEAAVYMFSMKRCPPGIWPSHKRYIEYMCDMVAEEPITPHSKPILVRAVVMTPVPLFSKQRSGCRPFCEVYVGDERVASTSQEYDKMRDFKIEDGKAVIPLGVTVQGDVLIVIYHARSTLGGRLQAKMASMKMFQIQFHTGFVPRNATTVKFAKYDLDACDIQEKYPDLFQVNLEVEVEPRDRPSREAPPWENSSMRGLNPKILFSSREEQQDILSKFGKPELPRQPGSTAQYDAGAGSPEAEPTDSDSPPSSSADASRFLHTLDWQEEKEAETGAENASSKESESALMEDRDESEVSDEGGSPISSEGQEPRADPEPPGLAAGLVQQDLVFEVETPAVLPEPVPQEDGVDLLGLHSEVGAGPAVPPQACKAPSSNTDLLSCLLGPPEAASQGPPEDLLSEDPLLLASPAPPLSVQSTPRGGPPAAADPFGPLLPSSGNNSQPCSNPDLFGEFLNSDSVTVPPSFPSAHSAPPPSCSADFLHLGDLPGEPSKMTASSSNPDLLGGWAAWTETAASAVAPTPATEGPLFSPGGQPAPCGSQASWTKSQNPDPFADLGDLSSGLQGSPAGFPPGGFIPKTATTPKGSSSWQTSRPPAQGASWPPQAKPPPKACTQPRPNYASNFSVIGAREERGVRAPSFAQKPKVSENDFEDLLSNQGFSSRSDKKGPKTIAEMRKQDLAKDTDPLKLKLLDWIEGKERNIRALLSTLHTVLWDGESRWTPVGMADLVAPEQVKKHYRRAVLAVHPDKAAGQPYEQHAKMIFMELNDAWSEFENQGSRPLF

[24] = target: T24, DDR2 (Homo sapiens, UniProt Q16832); experiment: KINOMEscan; format: binding; conditions: read-out: %Ctrl @ 1000 nM
T24 construct: purchased DiscoveRx KINOMEscan
T24 sequence (Q16832 22-855): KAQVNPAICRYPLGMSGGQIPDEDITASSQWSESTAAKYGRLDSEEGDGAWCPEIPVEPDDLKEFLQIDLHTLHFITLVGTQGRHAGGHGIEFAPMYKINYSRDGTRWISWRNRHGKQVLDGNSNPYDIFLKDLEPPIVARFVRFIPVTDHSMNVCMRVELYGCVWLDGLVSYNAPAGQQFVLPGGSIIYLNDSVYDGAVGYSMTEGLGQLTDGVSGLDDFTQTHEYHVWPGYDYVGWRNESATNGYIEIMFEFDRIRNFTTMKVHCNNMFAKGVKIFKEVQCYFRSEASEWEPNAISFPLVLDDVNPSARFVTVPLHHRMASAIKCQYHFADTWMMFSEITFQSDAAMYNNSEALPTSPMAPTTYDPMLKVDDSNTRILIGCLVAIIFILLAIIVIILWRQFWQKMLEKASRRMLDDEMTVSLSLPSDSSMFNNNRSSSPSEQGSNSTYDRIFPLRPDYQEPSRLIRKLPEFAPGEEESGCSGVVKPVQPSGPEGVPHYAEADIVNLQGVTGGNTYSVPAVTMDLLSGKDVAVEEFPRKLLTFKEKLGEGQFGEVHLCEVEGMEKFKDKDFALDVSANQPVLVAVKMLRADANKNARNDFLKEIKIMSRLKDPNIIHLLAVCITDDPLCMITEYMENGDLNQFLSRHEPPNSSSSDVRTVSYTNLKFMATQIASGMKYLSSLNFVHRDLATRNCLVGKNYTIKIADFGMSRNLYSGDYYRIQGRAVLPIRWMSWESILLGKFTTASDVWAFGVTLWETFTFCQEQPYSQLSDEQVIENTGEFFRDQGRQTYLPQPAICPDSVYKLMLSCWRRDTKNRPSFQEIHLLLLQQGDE

[25] = target: SMYD2 (Homo sapiens, UniProt Q9NRG4); experiment: Ex vivo methylation detection by dot blot (AHNAK) in SMYD2-overexpressing KYSE-150 xenografts; parameters: expressed in transfected cells; species or system mouse; conditions: 3 days
Sequence of SMYD2 (Q9NRG4 whole entry): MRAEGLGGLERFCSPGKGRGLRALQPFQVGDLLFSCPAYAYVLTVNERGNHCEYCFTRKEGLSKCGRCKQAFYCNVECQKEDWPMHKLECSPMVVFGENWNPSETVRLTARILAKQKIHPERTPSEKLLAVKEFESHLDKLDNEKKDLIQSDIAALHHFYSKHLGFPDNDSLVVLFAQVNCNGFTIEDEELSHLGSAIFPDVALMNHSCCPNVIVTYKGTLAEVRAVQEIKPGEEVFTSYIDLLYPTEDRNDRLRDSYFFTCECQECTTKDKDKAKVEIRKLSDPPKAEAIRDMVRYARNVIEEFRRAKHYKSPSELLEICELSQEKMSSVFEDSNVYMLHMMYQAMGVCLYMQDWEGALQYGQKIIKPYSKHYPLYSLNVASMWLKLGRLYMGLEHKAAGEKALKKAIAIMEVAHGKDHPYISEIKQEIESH

[26] = target: T25, TAOK2 (Homo sapiens, UniProt Q9UL54); experiment: KINOMEscan; format: binding; conditions: read-out: %Ctrl @ 1000 nM
T25 construct: purchased DiscoveRx KINOMEscan

[27] = target: T26, NEK2 (Homo sapiens, UniProt P51955); experiment: KINOMEscan; format: binding; conditions: read-out: %Ctrl @ 1000 nM
T26 construct: purchased DiscoveRx KINOMEscan

[28] = target: T27, EGFR(S752-I759del) (Homo sapiens, UniProt P00533, DEL752-759); experiment: KINOMEscan; format: binding; conditions: read-out: %Ctrl @ 1000 nM
T27 construct: purchased DiscoveRx KINOMEscan

[29] = target: T28, TRPM6 (Homo sapiens, UniProt Q9BX84); experiment: KINOMEscan; format: binding; conditions: read-out: %Ctrl @ 1000 nM
T28 construct: purchased DiscoveRx KINOMEscan

[30] = target: T29, EPHB6 (Homo sapiens, UniProt O15197); experiment: KINOMEscan; format: binding; conditions: read-out: %Ctrl @ 1000 nM
T29 construct: purchased DiscoveRx KINOMEscan
T29 sequence (O15197 32-1021): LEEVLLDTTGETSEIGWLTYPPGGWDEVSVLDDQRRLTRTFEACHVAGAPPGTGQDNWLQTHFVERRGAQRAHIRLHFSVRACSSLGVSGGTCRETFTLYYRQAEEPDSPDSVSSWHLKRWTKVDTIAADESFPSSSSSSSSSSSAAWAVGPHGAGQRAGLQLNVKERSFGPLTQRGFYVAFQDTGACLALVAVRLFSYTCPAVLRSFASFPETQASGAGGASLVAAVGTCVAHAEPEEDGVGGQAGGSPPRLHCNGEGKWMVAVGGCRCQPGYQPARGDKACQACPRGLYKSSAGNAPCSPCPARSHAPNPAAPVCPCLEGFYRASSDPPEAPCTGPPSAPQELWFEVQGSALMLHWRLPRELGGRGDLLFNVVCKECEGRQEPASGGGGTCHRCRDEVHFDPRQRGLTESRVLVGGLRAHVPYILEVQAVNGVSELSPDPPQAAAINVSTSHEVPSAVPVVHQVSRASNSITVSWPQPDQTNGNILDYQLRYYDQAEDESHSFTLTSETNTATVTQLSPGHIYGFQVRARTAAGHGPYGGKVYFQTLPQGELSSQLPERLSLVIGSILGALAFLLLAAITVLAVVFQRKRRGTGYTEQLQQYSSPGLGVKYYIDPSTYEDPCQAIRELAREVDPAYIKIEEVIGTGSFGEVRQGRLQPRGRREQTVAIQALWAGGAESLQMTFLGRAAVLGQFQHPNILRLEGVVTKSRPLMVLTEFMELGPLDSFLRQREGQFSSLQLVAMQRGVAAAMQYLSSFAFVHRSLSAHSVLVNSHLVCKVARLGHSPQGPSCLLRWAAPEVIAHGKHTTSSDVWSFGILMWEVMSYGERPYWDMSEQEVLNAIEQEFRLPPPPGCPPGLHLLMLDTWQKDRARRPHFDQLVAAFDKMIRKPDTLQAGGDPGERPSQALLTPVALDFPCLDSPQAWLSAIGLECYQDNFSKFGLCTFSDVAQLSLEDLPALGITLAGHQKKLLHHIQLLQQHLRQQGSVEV

[31] = target: T30, DCAMKL1 (Homo sapiens, UniProt O15075); experiment: KINOMEscan; format: binding; conditions: read-out: %Ctrl @ 1000 nM
T30 construct: purchased DiscoveRx KINOMEscan

[32] = target: T31, MKNK1 (Homo sapiens, UniProt Q9BUB5); experiment: KINOMEscan; format: binding; conditions: read-out: %Ctrl @ 1000 nM
T31 construct: purchased DiscoveRx KINOMEscan

[33] = target: T32, PIK3CA(E545A) (Homo sapiens, UniProt P42336, E545A); experiment: KINOMEscan; format: binding; conditions: read-out: %Ctrl @ 1000 nM
T32 construct: purchased DiscoveRx KINOMEscan

[34] = target: T33, SIK (Homo sapiens, UniProt P57059); experiment: KINOMEscan; format: binding; conditions: read-out: %Ctrl @ 1000 nM
T33 construct: purchased DiscoveRx KINOMEscan

[35] = target: T34, SRPK1 (Homo sapiens, UniProt Q96SB4); experiment: KINOMEscan; format: binding; conditions: read-out: %Ctrl @ 1000 nM
T34 construct: purchased DiscoveRx KINOMEscan
T34 sequence (Q96SB4 whole entry): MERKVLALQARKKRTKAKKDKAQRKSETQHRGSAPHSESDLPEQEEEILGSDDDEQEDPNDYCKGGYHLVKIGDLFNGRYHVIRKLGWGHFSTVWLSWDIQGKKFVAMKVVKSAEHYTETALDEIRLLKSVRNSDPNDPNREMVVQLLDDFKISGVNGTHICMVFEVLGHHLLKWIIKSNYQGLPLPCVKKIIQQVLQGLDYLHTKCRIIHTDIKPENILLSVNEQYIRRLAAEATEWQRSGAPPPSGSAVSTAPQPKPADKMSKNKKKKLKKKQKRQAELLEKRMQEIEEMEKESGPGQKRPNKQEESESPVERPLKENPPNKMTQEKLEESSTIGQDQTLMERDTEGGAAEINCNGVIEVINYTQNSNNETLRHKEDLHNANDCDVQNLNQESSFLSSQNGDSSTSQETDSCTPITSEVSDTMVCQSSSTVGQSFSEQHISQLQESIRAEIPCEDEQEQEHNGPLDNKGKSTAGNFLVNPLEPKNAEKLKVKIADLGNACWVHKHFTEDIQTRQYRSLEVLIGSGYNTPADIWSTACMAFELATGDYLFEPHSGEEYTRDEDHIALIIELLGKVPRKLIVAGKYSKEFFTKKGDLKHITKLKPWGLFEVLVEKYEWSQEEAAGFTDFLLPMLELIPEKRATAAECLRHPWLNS

[36] = target: T35, CDKL2 (Homo sapiens, UniProt Q92772); experiment: KINOMEscan; format: binding; conditions: read-out: %Ctrl @ 1000 nM
T35 construct: purchased DiscoveRx KINOMEscan

[37] = target: T36, CDK4-cyclinD1 (Homo sapiens, UniProt P11802); experiment: KINOMEscan; format: binding; conditions: read-out: %Ctrl @ 1000 nM
T36 construct: purchased DiscoveRx KINOMEscan
T36 sequence (P11802 whole entry): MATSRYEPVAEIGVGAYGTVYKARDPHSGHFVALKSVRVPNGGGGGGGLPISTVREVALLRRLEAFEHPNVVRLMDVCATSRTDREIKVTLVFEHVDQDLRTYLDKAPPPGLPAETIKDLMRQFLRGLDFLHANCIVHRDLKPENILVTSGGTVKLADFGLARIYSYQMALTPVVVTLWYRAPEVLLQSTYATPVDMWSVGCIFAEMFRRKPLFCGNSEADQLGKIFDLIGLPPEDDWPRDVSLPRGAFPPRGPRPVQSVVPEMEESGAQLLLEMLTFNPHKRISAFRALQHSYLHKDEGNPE
T36 sequence (P24385 whole entry partner): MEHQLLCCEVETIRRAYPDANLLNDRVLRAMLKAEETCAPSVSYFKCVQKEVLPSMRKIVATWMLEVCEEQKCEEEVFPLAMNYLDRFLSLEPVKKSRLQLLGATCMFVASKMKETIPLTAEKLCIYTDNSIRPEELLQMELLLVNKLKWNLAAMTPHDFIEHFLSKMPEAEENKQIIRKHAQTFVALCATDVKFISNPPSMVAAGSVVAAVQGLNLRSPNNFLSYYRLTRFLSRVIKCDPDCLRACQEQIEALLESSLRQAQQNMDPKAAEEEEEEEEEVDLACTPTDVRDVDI

[38] = target: T37, DDR1 (Homo sapiens, UniProt Q08345); experiment: KINOMEscan; format: binding; conditions: read-out: %Ctrl @ 1000 nM
T37 construct: purchased DiscoveRx KINOMEscan

[39] = target: T38, TIE1 (Homo sapiens, UniProt P35590); experiment: KINOMEscan; format: binding; conditions: read-out: %Ctrl @ 1000 nM
T38 construct: purchased DiscoveRx KINOMEscan

[40] = target: T39, PIK3CD (Homo sapiens, UniProt O00329); experiment: KINOMEscan; format: binding; conditions: read-out: %Ctrl @ 1000 nM
T39 construct: purchased DiscoveRx KINOMEscan

Compound: CCN(C(=O)CO)[C@H]1CN(/C(=N\C#N)Nc2cccc(OC(F)F)c2)N=C1c1ccc(Cl)c(Cl)c1 [(S)-4]
- remaining binding at 1 µM [1]: 84%
- remaining binding at 1 µM [2]: 91%
- remaining binding at 1 µM [3]: 80%
- remaining binding at 1 µM [4]: 100%
- remaining binding at 1 µM [5]: 97%
- remaining binding at 1 µM [6]: 100%
- remaining binding at 1 µM [7]: 100%
- remaining binding at 1 µM [8]: 98%
- remaining binding at 1 µM [9]: 100%
- remaining binding at 1 µM [10]: 100%
- remaining binding at 1 µM [11]: 100%
- remaining binding at 1 µM [12]: 80%
- remaining binding at 1 µM [13]: 68%
- remaining binding at 1 µM [14]: 92%
- remaining binding at 1 µM [15]: 100%
- remaining binding at 1 µM [16]: 86%
- remaining binding at 1 µM [17]: 87%
- remaining binding at 1 µM [18]: 91%
- remaining binding at 1 µM [19]: 100%
- remaining binding at 1 µM [20]: 100%
- remaining binding at 1 µM [21]: 100%
- remaining binding at 1 µM [22]: 75%
- remaining binding at 1 µM [23]: 100%
- remaining binding at 1 µM [24]: 100%
- Ex vivo AHNAK methylation in tumors ([25]; 10 mg/kg po qd): no significant effect
- Ex vivo AHNAK methylation in tumors ([25]; 100 mg/kg po qd): most significant effects
- Ex vivo AHNAK methylation in tumors ([25]; doses starting from 30 mg/kg po qd): significantly reduced
- remaining binding at 1 µM [26]: 91%
- remaining binding at 1 µM [27]: 99%
- remaining binding at 1 µM [28]: 100%
- remaining binding at 1 µM [29]: 80%
- remaining binding at 1 µM [30]: 100%
- remaining binding at 1 µM [31]: 67%
- remaining binding at 1 µM [32]: 100%
- remaining binding at 1 µM [33]: 53%
- remaining binding at 1 µM [34]: 98%
- remaining binding at 1 µM [35]: 57%
- remaining binding at 1 µM [36]: 100%
- remaining binding at 1 µM [37]: 93%
- remaining binding at 1 µM [38]: 96%
- remaining binding at 1 µM [39]: 99%
- remaining binding at 1 µM [40]: 81%
